Reference: publication PMC8757511 (ACS Medicinal Chemistry Letters, 2021)
≈ marks a conversion by molar mass, not a printed value.

Tests used:
[1] = system: M. tuberculosis strain, H37Ra (ATCC 25177); experiment: microbe, parasite or virus in culture; type: cell-based, Mycobacterium tuberculosis; conditions: for MIC: Mycobacterium tuberculosis, ATCC25177|H37RA, read-out: Mtb MIC
[2] = system: Zebrafish (Danio rerio) embryos; conditions: 5 days
[3] = biological target: T1, PknB (Mycobacterium tuberculosis, UniProt P9WI81); experiment: biochemical; type: binding
Target sequence in this assay (P9WI81 1-331 limits assumed): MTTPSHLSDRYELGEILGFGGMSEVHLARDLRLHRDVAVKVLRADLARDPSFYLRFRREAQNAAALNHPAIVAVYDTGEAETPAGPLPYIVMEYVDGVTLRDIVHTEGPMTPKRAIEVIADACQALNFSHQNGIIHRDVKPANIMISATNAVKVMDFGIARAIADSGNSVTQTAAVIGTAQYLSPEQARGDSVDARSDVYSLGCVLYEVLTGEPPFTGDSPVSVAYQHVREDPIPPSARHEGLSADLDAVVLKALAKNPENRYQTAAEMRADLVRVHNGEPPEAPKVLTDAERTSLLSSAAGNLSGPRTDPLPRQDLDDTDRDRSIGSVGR

[4] = biological target: T1, PknB; experiment: biochemical; type: biochemical
Target sequence in this assay (P9WI81 1-331 limits assumed): as above

[5] = physchem; conditions: pH 7.4, LogD7.4, pH 7.4
[6] = biological target: Cdk2-Cyclin A (Homo sapiens, UniProt P24941); experiment: biochemical; type: biochemical
[7] = system: 453 human kinases (403 wild-type and 50 mutant); type: binding; conditions: 10 μM, KinomeSCAN
[8] = system: THP-1 human macrophage cell line
[9] = biological target: T1, PknB; type: binding; conditions: DiscoverX Kd
Target sequence in this assay (P9WI81 whole entry): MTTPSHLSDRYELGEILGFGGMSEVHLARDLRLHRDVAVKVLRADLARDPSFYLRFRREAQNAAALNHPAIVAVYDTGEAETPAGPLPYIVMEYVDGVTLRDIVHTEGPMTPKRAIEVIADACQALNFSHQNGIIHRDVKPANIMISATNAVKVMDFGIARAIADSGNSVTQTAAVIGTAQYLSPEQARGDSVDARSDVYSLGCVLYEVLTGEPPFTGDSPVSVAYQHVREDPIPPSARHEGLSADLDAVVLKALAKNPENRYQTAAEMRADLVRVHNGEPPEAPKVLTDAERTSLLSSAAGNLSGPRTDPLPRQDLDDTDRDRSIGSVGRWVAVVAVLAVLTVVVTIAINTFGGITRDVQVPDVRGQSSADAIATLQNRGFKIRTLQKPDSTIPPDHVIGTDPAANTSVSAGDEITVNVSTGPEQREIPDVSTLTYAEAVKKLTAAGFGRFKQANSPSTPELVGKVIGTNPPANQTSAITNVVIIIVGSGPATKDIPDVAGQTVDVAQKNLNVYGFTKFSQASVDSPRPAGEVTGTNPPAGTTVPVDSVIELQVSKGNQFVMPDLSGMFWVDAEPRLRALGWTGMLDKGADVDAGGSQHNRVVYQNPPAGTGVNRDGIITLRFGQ

Structure (SMILES): CN1CCN(c2ccc(Nc3nccc(-c4ccncc4)n3)cc2C(F)(F)F)CC1 [Compound 5]
- worse Mtb MIC than 1 [1]: 2–4 fold
- MIC [1]: 50 µM (≈ 20.7 µg/mL)
- % D. rario survival @ 5 μM [2]: 30%
- Kd [3]: 78 nM
- IC50 [4]: 2100 nM
- Ki [4]: 580 nM
- logD [5]: 3.57
- IC50 [6]: 4600 nM

Structure (SMILES): CN1CCN(c2ccc(Nc3nccc(-c4ccccc4)n3)cc2C(F)(F)F)CC1 [Compound 9]
- selectivity score (S-score) at 1% of control (S(1)) [7]: 0.084
- % D. rario survival @ 5 μM [2]: ~100%
- reduction in Cdk2 biochemical inhibition relative to 1 [6]: greater than 28 fold

Structure (SMILES): CNc1cc(-c2ccnc(Nc3ccc(N4CCN(C)CC4)c(C(F)(F)F)c3)n2)ccn1 [Compound 8]
- loss of PknB activity relative to 1 ([4]; relative to 1): 6 fold
- reduction in Cdk2 biochemical inhibition relative to 1 [6]: 28 fold

Structure (SMILES): Cc1ccc(-c2ccnc(Nc3ccc(N4CCN(C)CC4)c(C(F)(F)F)c3)n2)cc1 [Compound 12]
- MIC [1]: ≤ 19 µM
- % D. rario survival @ 5 μM [2]: 0%
- reduction in Cdk2 biochemical inhibition relative to 1 [6]: greater than 28 fold

Structure (SMILES): CN1CCN(c2ccc(Nc3nccc(-c4cccc(Cl)c4)n3)cc2C(F)(F)F)CC1 [Compound 16]
- MIC [1]: ≤ 19 µM
- reduction in Cdk2 biochemical inhibition relative to 1 [6]: greater than 28 fold
- improvement in cytotoxicity over 1 ([8]; THP-1, relative to 1): > 2 log unit

Structure (SMILES): CN1CCN(c2ccc(Nc3nccc(-c4ccnc(Cl)c4)n3)cc2C(F)(F)F)CC1 [Compound 6]
- % D. rario survival @ 5 μM [2]: ~100%

Structure (SMILES): CN1CCN(c2ccc(Nc3nccc(-c4ccc5ccccc5c4)n3)cc2C(F)(F)F)CC1 [Compound 20]
- lower MIC than inhibitor 19 [1]: 2 fold
- % D. rario survival @ 5 μM [2]: ~100%
- loss in PknB activity relative to 19 [4]: 3 fold
- improvement in THP-1 cytotoxicity relative to 1 ([8]; relative to 1): > 60 fold

Structure (SMILES): CN1CCN(c2ccc(Nc3nccc(-c4cccc([N+](=O)[O-])c4)n3)cc2C(F)(F)F)CC1 [Compound 19]
- MIC [1]: ≤ 19 µM
- selectivity score (S-score) at 1% of control (S(1)) [7]: 0.12
- % D. rario survival @ 5 μM [2]: 0%
- affinity for PknB vs GSK3β, mTOR, and Pim1 [9]: > 100 fold

Structure (SMILES): CN1CCN(c2ccc(Nc3nccc(-c4ccc(Cl)cc4)n3)cc2C(F)(F)F)CC1 [Compound 11]
- reduction in Cdk2 biochemical inhibition relative to 1 [6]: greater than 28 fold

Structure (SMILES): CN1CCN(c2ccc(Nc3nccc(-c4cccnc4)n3)cc2C(F)(F)F)CC1 [Compound 4]
- worse Mtb MIC than 1 [1]: 2–4 fold
